Measurements from paper PMC5220248 (Angewandte Chemie (International ed. in English), 2016).
Residues, ends and D or L forms follow the SMILES beside them.

Key:
[1] = human, serum
[2] = molecular target: HIV Rev protein (Human immunodeficiency virus type 1 group M subtype B, UniProt P04618); format: binding

C[C@@H]1NC(=O)[C@H](C)NC(=O)[C@@H]2CCCN2C(=O)[C@H](Cc2ccc(O)cc2)NC(=O)[C@H](CCCNC(=N)N)NC(=O)[C@H](Cc2ccc(O)cc2)NC(=O)[C@H](CO)NC1=O [cRBP, cyclo-YPAASYR] (cyclo(AASYRYP))
half-life [1]: ~30 h | IC50 [2]: 28 ± 5 nM
